The values below come from publication PMC4482421 (ACS Nano, 2015).

The test system of data set [1] is human saphenous vein (HSV) rings. Kind of data set: Inhibition of phenylephrine-induced HSV contraction. Particulars: HSV rings ex vivo; 2 h treatment; 1 μM phenylephrine; n ≥ 3 donors.
In data set [2] the test system is human coronary artery vascular smooth muscle cells (HCAVSMCs). Kind of data set: Cytotoxicity assay. As to conditions: 10–500 μM peptide, 2 h treatment, then 24 h in fresh medium. The format is cell-based.

Square brackets hold non-standard residues; d marks the D form. Peptide text beside a SMILES is read from it. pS = N[C@@H](COP(=O)(O)O)C(=O)O

Regarding `CC(C)C[C@H](NC(=O)CNC(=O)[C@@H]1CCCN1C(=O)[C@H](CC(C)C)NC(=O)[C@@H]1CCCN1C(=O)[C@H](C)NC(=O)[C@H](COP(=O)(O)O)NC(=O)[C@H](C)NC(=O)[C@H](CCCNC(=N)N)NC(=O)[C@H](CCCNC(=N)N)NC(=O)[C@H](CC(C)C)NC(=O)[C@H](Cc1c[nH]c2ccccc12)NC(=O)[C@H](C)NC(=O)[C@H](CCCNC(=N)N)NC(=O)[C@H](C)NC(=O)[C@H](CCC(N)=O)NC(=O)[C@H](CCCNC(=N)N)NC(=O)[C@H](C)NC(=O)[C@H](C)NC(=O)[C@H](C)NC(=O)[C@H](CCCNC(=N)N)NC(=O)[C@H](C)NC(=O)[C@@H](N)Cc1ccc(O)cc1)C(=O)N[C@@H](CCCCN)C(=O)O` [p-HSP20] (H-YARAAARQARAWLRRA[pS]APLPGLK-OH; N-terminus and C-terminus assumed), the “inhibition of PE-induced HSV contraction” value in data set [1] was “significantly inhibited the second PE-induced HSV contraction”. In data set [2], the “cytotoxicity / biocompatibility” value was “biocompatible with the exception of mild cytotoxicity detected at 500 μM”.
